# Test results from patent US20260022142A1, “MACROCYCLIC IMMUNOMODULATORS” (Bristol-Myers Squibb Company, priority 2022, published 2026).
# Numbered stars: 1 amine (or outer) side, 2 acyl side, 3 side chain; on linkers, the order of the positions; unused ones are H or OH. Bridge positions count the residues as written; N and C are the ends. Square brackets hold non-standard residues; d marks the D form. Peptide text beside a SMILES is read from it. * marks the point of attachment. ξ: configuration not given here. Phe(4-COOH) = N[C@@H](Cc1ccc(C(=O)O)cc1)C(=O)O; Bip = N[C@@H](Cc1ccc(-c2ccccc2)cc1)C(=O)O; d(βAsp) = O=C(O)[C@@H](CC(=O)[*:2])N[*:1]; NH(CH2)14COOH = O=C(O)CCCCCCCCCCCCCCN*; Phe(3-Me) = Cc1cccc(C[C@H](N)C(=O)O)c1; 1Nal = N[C@@H](Cc1cccc2ccccc12)C(=O)O; βAsp = O=C(O)[C@H](CC(=O)[*:2])N[*:1]; NH(CH2)12COOH = O=C(O)CCCCCCCCCCCCN*; Val(3-OH) = CC(C)(O)[C@H](N)C(=O)O; 4Pal = N[C@@H](Cc1ccncc1)C(=O)O; Cha = N[C@@H](CC1CCCCC1)C(=O)O; Cit = NC(=O)NCCC[C@H](N)C(=O)O; Thr(3ξ) = CC(O)[C@H](N)C(=O)O; 12Ado = NCCCCCCCCCCCC(=O)O; Carboxymethyl = O=C(O)C*; Orn = NCCC[C@H](N)C(=O)O; Aun = NCCCCCCCCCCC(=O)O; Dab = NCC[C@H](N)C(=O)O; Dap = NC[C@H](N)C(=O)O; AEEA = NCCOCCOCC(=O)O
# Molecular target: T1, PD-1/PD-L1 interaction (PE-labeled human PD-L1-Ig binding to Jurkat cell line over-expressing human PD-1) (Homo sapiens, UniProt Q15116)
# T1 construct: expressed in transfected cells; host or cells: Jurkat
# T1 sequence (Q15116 25-288): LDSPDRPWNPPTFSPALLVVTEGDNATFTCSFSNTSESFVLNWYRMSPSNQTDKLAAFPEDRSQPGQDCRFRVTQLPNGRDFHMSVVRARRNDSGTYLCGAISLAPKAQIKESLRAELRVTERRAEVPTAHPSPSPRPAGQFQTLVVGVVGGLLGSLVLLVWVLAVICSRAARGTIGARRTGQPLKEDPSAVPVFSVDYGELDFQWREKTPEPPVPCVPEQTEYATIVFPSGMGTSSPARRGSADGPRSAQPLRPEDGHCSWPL
# Test: Jurkat-PD-1 Cell Binding High-Content Screening Assay (CBA)
# Format: cell-based
# Conditions: Jurkat cell line over-expressing human PD-1; PE-labeled PD-L1-Ig 20 nM final; read-out: Jurkat hPD1-PDL1 IC50
# How it was run: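 Binding of fluorescent PD-L1-Ig (phycoerythrin on Ig tag, 20 nM final, 1 h) measured by high-content imaging of fixed, Hoechst-counterstained Jurkat-hPD-1 cells. Compound added 2 h at 37° C beforehand, in DMEM with 10% fetal calf serum.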
row,IC50 [nM],SMILES
1,29.1,CC(=O)NCCCC[C@@H]1NC(=O)[C@H](Cc2ccc(-c3ccccc3)cc2)NC(=O)[C@H](Cc2ccc(O)cc2)NC(=O)[C@H](Cc2cccc(C)c2)NC(=O)[C@H](CC(=O)O)NC(=O)[C@H](Cc2ccc(OCC(=O)O)cc2)NC(=O)[C@H](CCN)NC(=O)CSC[C@@H](C(=O)N[C@@H](CCN)C(=O)N[C@@H](CO)C(=O)NCCCCCCCCCCCC(=O)O)NC(=O)[C@H](CCCCN)NC(=O)[C@H](C(C)O)NC(=O)[C@H](CC2CCCCC2)NC(=O)[C@H](CCN)NC(=O)[C@@H](CC(C)C)NC(=O)[C@H](CCCN)NC1=O (stereo partly drawn) [Compound 3637] ({CH2CO}-[Dab]Y(Carboxymethyl)D[Phe(3-Me)]Y[Bip]K(Ac)[Orn][dL][Dab][Cha][Thr(3ξ)]KC[Dab]S[12Ado]-OH; thioether N-14)
2,8.5,CC(C)C[C@H]1NC(=O)[C@H](CCCN)NC(=O)[C@H](Cc2ccc(O)cc2)NC(=O)[C@H](Cc2ccc(-c3ccccc3)cc2)NC(=O)[C@H](C(C)C)NC(=O)[C@H](Cc2c[nH]c3ccccc23)NC(=O)[C@H](CC(=O)O)NC(=O)[C@H](Cc2ccc(OCC(=O)O)cc2)NC(=O)[C@H](CCCNC(=N)N)NC(=O)CSC[C@@H](C(=O)N[C@@H](CCN)C(=O)NCCCCCCCCCCC(=O)O)NC(=O)[C@H](CCC(=O)O)NC(=O)[C@H](C(C)C)NC(=O)[C@H](CC2CCCCC2)NC(=O)[C@H](CCN)NC1=O [Compound 3349] ({CH2CO}-RY(Carboxymethyl)DWV[Bip]Y[Orn][dL][Dab][Cha]VEC[Dab][Aun]-OH; thioether N-14)
3,34.6,CC(C)C[C@H]1NC(=O)[C@H](CCCN)NC(=O)[C@H](C(C)C)NC(=O)[C@H](Cc2ccc(-c3ccccc3)cc2)NC(=O)[C@H](C(C)C)NC(=O)[C@H](Cc2c[nH]c3ccccc23)NC(=O)[C@H](CC(=O)O)NC(=O)[C@H](Cc2ccc(OCC(=O)O)cc2)NC(=O)[C@H](Cc2ccc(OCC(=O)O)cc2)NC(=O)CSC[C@@H](C(=O)N[C@@H](CCCCN)C(=O)NCCCCCCCCCCC(=O)O)NC(=O)[C@H](CCCNC(=N)N)NC(=O)[C@H](C(C)C)NC(=O)[C@H](CC2CCCCC2)NC(=O)[C@H](CCN)NC1=O [Compound 2532] ({CH2CO}-Y(Carboxymethyl)Y(Carboxymethyl)DWV[Bip]V[Orn][dL][Dab][Cha]VRCK[Aun]-OH; thioether N-14)
4,24.1,CC(C)C[C@H]1NC(=O)[C@H](CCCN)NC(=O)[C@H](C(C)C)NC(=O)[C@H](Cc2ccc(-c3ccccc3)cc2)NC(=O)[C@H](C(C)C)NC(=O)[C@H](Cc2c[nH]c3ccccc23)NC(=O)[C@H](CC(=O)O)NC(=O)[C@H](Cc2ccc(OCC(=O)O)cc2)NC(=O)[C@H](CN)NC(=O)CSC[C@@H](C(=O)N[C@@H](CCN)C(=O)NCCCCCCCCCCC(=O)O)NC(=O)[C@H](CO)NC(=O)[C@H](C(C)O)NC(=O)[C@H](CC2CCCCC2)NC(=O)[C@H](CCN)NC1=O (stereo partly drawn) [Compound 3651] ({CH2CO}-[Dap]Y(Carboxymethyl)DWV[Bip]V[Orn][dL][Dab][Cha][Thr(3ξ)]SC[Dab][Aun]-OH; thioether N-14)
5,12.5,Cc1cccc(C[C@@H]2NC(=O)[C@H](CC(=O)O)NC(=O)[C@H](Cc3ccc(OCC(=O)O)cc3)NC(=O)[C@H](CN)NC(=O)CSC[C@@H](C(=O)N[C@@H](C)C(=O)N[C@@H](CCC(=O)O)C(=O)NCCCCCCCCCCC(=O)O)NC(=O)[C@H](CN)NC(=O)[C@H](C(C)C)NC(=O)[C@H](CC3CCCCC3)NC(=O)[C@H](CCN)NC(=O)[C@@H](CC(C)C)NC(=O)[C@H](CCCN)NC(=O)[C@H](CCCNC(N)=O)NC(=O)[C@H](Cc3ccc(-c4ccccc4)cc3)NC(=O)[C@H](C(C)C)NC2=O)c1 [Compound 2618] ({CH2CO}-[Dap]Y(Carboxymethyl)D[Phe(3-Me)]V[Bip][Cit][Orn][dL][Dab][Cha]V[Dap]CAE[Aun]-OH; thioether N-14)
6,8.3,Cc1cccc(C[C@@H]2NC(=O)[C@H](CC(=O)O)NC(=O)[C@H](Cc3ccc(OCC(=O)O)cc3)NC(=O)[C@H](CN)NC(=O)CSC[C@@H](C(=O)N[C@@H](C)C(=O)N[C@@H](CC(=O)O)C(=O)NCCOCCOCC(=O)N[C@@H](CC(=O)NCCOCCOCC(=O)NCCCCCCCCCCC(=O)O)C(=O)O)NC(=O)[C@H]([C@@H](C)O)NC(=O)[C@H](C(C)C)NC(=O)[C@H](CC3CCCCC3)NC(=O)[C@H](CCN)NC(=O)[C@@H](CC(C)C)NC(=O)[C@H](CCCN)NC(=O)[C@H](CCCNC(N)=O)NC(=O)[C@H](Cc3ccc(-c4ccccc4)cc3)NC(=O)[C@H](C(C)C)NC2=O)c1 [Compound 1021] ({CH2CO}-[Dap]Y(Carboxymethyl)D[Phe(3-Me)]V[Bip][Cit][Orn][dL][Dab][Cha]VTCAD[AEEA][βAsp][AEEA][Aun]-OH; thioether N-14)
7,129,Cc1cccc(C[C@@H]2NC(=O)[C@H](CC(=O)O)NC(=O)[C@H](Cc3ccc(OCC(=O)O)cc3)NC(=O)[C@H](Cc3ccncc3)NC(=O)CSC[C@@H](C(=O)N[C@@H](CCN)C(=O)NCCCCCCCCCCC(=O)O)NC(=O)[C@H](CO)NC(=O)[C@H](C(C)(C)O)NC(=O)[C@H](CC3CCCCC3)NC(=O)[C@H](CCN)NC(=O)[C@@H](CC(C)C)NC(=O)[C@H](CCCN)NC(=O)[C@H](Cc3ccc(C(=O)O)cc3)NC(=O)[C@H](Cc3ccc(-c4ccccc4)cc3)NC(=O)[C@H](Cc3ccc(C(=O)O)cc3)NC2=O)c1 [Compound 3712] ({CH2CO}-[4Pal]Y(Carboxymethyl)D[Phe(3-Me)][Phe(4-COOH)][Bip][Phe(4-COOH)][Orn][dL][Dab][Cha][Val(3-OH)]SC[Dab][Aun]-OH; thioether N-14)
8,24.6,CC(C)C[C@H]1NC(=O)[C@H](CCCN)NC(=O)[C@H](Cc2ccc(O)cc2)NC(=O)[C@H](Cc2ccc(-c3ccccc3)cc2)NC(=O)[C@H](C(C)C)NC(=O)[C@H](Cc2cccc3ccccc23)NC(=O)[C@H](CC(=O)O)NC(=O)[C@H](Cc2ccc(OCC(=O)O)cc2)NC(=O)[C@H](CN)NC(=O)CSC[C@@H](C(=O)N[C@@H](CCN)C(=O)NCCOCCOCC(=O)NCCCCCCCCCCC(=O)O)NC(=O)[C@H](CCCN)NC(=O)[C@H](C(C)C)NC(=O)[C@H](CC2CCCCC2)NC(=O)[C@H](CCN)NC1=O [Compound 1297] ({CH2CO}-[Dap]Y(Carboxymethyl)D[1Nal]V[Bip]Y[Orn][dL][Dab][Cha]V[Orn]C[Dab][AEEA][Aun]-OH; thioether N-14)
9,30.1,Cc1cccc(C[C@@H]2NC(=O)[C@H](CC(=O)O)NC(=O)[C@H](Cc3ccc(OCC(=O)O)cc3)NC(=O)[C@H](CN)NC(=O)CSC[C@@H](C(=O)N[C@@H](CCCN)C(=O)N[C@@H](CO)C(=O)NCCCCCCCCCCCC(=O)O)NC(=O)[C@H](C(C)O)NC(=O)[C@H](C(C)C)NC(=O)[C@H](CC3CCCCC3)NC(=O)[C@H](CCN)NC(=O)[C@@H](CC(C)C)NC(=O)[C@H](CCCN)NC(=O)[C@H](CCCNC(N)=O)NC(=O)[C@H](Cc3ccc(-c4ccccc4)cc3)NC(=O)[C@H](Cc3ccc(O)cc3)NC2=O)c1 (stereo partly drawn) [Compound 3586] ({CH2CO}-[Dap]Y(Carboxymethyl)D[Phe(3-Me)]Y[Bip][Cit][Orn][dL][Dab][Cha]V[Thr(3ξ)]C[Orn]S[12Ado]-OH; thioether N-14)
10,21.5,Cc1cccc(C[C@@H]2NC(=O)[C@H](CC(=O)O)NC(=O)[C@H](Cc3ccc(OCC(=O)O)cc3)NC(=O)[C@H](CCN)NC(=O)CSC[C@@H](C(=O)N[C@@H](CCN)C(=O)N[C@@H](CO)C(=O)NCCCCCCCCCCCC(=O)O)NC(=O)[C@H](CCCN)NC(=O)[C@H](C(C)(C)O)NC(=O)[C@H](CC3CCCCC3)NC(=O)[C@H](CCN)NC(=O)[C@@H](CC(C)C)NC(=O)[C@H](CCCN)NC(=O)[C@H](Cc3ccc(OCC(=O)O)cc3)NC(=O)[C@H](Cc3ccc(-c4ccccc4)cc3)NC(=O)[C@H](Cc3ccc(OCC(=O)O)cc3)NC2=O)c1 [Compound 3624] ({CH2CO}-[Dab]Y(Carboxymethyl)D[Phe(3-Me)]Y(Carboxymethyl)[Bip]Y(Carboxymethyl)[Orn][dL][Dab][Cha][Val(3-OH)][Orn]C[Dab]S[12Ado]-OH; thioether N-14)
11,2690,COc1ccc(C[C@@H]2NC(=O)[C@H](Cc3cccc(C)c3)NC(=O)[C@H](CC(=O)O)NC(=O)[C@H](Cc3ccc(C(=O)O)cc3)NC(=O)[C@H](Cc3ccncc3)NC(=O)CSC[C@@H](C(=O)N[C@@H](CCN)C(=O)NCCOCCOCC(=O)NCCOCCOCC(=O)NCCCCCCCCCCCCCCC(=O)O)NC(=O)[C@H](CO)NC(=O)[C@H](C(C)(C)O)NC(=O)[C@H](CC3CCCCC3)NC(=O)[C@H](CCN)NC(=O)[C@@H](CC(C)C)NC(=O)[C@H](CCCN)NC(=O)[C@H](Cc3ccc(C(=O)O)cc3)NC(=O)[C@H](Cc3ccc(-c4ccccc4)cc3)NC2=O)cc1 [Compound 2885] ({CH2CO}-[4Pal][Phe(4-COOH)]D[Phe(3-Me)]Y(Me)[Bip][Phe(4-COOH)][Orn][dL][Dab][Cha][Val(3-OH)]SC[Dab][AEEA][AEEA]-{NH(CH2)14COOH}; thioether N-14)
12,26.3,Cc1cccc(C[C@@H]2NC(=O)[C@H](CC(=O)O)NC(=O)[C@H](Cc3ccc(OCC(=O)O)cc3)NC(=O)[C@H](CC(C)C)NC(=O)CSC[C@@H](C(=O)N[C@@H](CCN)C(=O)NCCOCCOCC(=O)N[C@H](CC(=O)NCCOCCOCC(=O)NCCCCCCCCCCCCC(=O)O)C(=O)O)NC(=O)[C@H](CCC(=O)O)NC(=O)[C@H](C(C)(C)O)NC(=O)[C@H](CC3CCCCC3)NC(=O)[C@H](CCN)NC(=O)[C@@H](CC(C)C)NC(=O)[C@H](CCCN)NC(=O)[C@H](Cc3ccc(OCC(=O)O)cc3)NC(=O)[C@H](Cc3ccc(-c4ccccc4)cc3)NC(=O)[C@H](Cc3ccc(OCC(=O)O)cc3)NC2=O)c1 [Compound 3877] ({CH2CO}-LY(Carboxymethyl)D[Phe(3-Me)]Y(Carboxymethyl)[Bip]Y(Carboxymethyl)[Orn][dL][Dab][Cha][Val(3-OH)]EC[Dab][AEEA][d(βAsp)][AEEA]-{NH(CH2)12COOH}; thioether N-14)
